This is an account of results in patent publication US20240342292A1, “Compounds for the Degradation of EGFR Kinase” (BeiGene Switzerland GmbH, priority 2021, published 2024).

One assay deals with Del19/T790M/C797S EGFR. Briefly: EGFR degradation HTRF assay in H1975-clone #28 (DTC) cells. It counts as cell-based. To be noted: H1975 # 28 DTC (Del19/T790M/C797S), 16h treatment; for DC50: HTRF; for Dmax (%): maximum percentage of degradation. The method in brief:
(§1)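 Engineered H1975 lines (exogenous mutant EGFR, endogenous copies knocked out, single clones sequence-verified); 16 h compound, 37 °C/5% CO2, 0.2% DMSO; top 10 uM, 5-fold, 8 pts; lysis 1 h RT, HTRF antibodies overnight RT; 4-parameter logistic fit → DC50.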
(In general: TR-FRET usually uses a lanthanide donor and a delayed reading to cut background.)

A further assay deals with T1, L858R/T790M/C797S EGFR (Homo sapiens, UniProt P00533, C797S/L858R/T790M).
T1 construct: expressed in transfected cells; host or cells: H1975 clone #25 (lentiviral over-expression, endogenous EGFR knocked out by sgRNA)
T1 sequence (P00533 25-1210 T790M/C797S/L858R): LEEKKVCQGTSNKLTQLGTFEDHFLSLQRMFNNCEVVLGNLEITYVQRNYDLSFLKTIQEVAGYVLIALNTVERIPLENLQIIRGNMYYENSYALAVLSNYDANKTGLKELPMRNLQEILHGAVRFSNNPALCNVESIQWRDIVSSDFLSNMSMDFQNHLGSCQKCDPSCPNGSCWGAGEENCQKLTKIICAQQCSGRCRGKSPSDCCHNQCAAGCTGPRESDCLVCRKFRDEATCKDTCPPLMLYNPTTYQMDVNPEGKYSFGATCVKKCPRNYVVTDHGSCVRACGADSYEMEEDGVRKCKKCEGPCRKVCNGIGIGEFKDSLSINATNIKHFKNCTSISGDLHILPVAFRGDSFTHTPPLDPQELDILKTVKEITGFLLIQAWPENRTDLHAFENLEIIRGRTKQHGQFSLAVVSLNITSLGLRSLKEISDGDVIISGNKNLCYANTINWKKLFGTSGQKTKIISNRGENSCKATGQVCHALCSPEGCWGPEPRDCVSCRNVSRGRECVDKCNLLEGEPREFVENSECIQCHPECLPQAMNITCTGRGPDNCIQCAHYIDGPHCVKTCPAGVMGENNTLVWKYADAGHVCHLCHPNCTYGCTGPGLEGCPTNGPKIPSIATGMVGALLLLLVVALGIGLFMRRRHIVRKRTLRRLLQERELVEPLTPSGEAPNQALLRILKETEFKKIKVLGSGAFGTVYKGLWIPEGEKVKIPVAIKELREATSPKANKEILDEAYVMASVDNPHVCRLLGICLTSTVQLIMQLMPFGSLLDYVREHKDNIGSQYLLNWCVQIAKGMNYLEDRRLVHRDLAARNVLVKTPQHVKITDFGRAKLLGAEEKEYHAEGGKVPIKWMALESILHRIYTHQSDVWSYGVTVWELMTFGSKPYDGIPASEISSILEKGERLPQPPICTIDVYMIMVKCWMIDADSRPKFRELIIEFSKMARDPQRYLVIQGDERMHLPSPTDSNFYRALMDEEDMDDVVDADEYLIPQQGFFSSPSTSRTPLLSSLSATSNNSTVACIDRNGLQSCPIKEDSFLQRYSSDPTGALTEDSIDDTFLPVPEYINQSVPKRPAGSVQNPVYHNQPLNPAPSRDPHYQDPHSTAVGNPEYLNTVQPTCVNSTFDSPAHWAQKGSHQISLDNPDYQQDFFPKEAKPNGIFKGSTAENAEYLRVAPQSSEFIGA
Briefly: EGFR degradation HTRF assay in H1975-clone #25 (LTC) cells. It counts as cell-based. Conditions: 16h treatment; for DC50: H1975 # 25-LTC (L858R/T790M/C797S), HTRF; for Dmax: NCI-H1975, H1975 # 25-LTC (L858R/T790M/C797S), maximum percentage of degradation. Summed up:
as §1

As for `Cc1cc2cc(n1)-c1cnn(C)c1OCCC[C@@H](C)CN1/C(=N/C2=O)Nc2ccc(C(=O)N[C@H]3CCN(CCc4cc(F)c([C@H]5CCC(=O)NC5=O)c(F)c4)[C@@H](C)C3)cc21` [Example 270, (R,E)-N—((2S,4S)-1-(4-((R)-2,6-dioxopiperidin-3-yl)-3,5-difluorophenethyl)-2-methylpiperidin-4-yl)-1^1,2^6,7-trimethyl-3-oxo-5^2,5^3-dihydro-1^1H,5^1H-11-oxa-4-aza-5(2,1)-benzo[d]imidazola-2(2,4)-pyridina-1(4,5)-pyrazolacycloundecaphane-5^6-carboxamide], in the assay with Del19/T790M/C797S EGFR, the DC50 is 0.614 nM and the “Dmax (%)” value is 81.16%. At L858R/T790M/C797S EGFR, this molecule yielded a DC50 of 0.429 nM and a Dmax of 92.5%.

As to `Cc1cc2cc(n1)-c1cnn(C)c1OCCC[C@@H](C)CN1/C(=N/C2=O)Nc2ccc(N3CC(NC4CCN(c5cc(F)c([C@H]6CCC(=O)NC6=O)c(F)c5)CC4)C3)cc21` [Example 454, (R)-3-(2,6-difluoro-4-(4-((1-((R,E)-1^1,2^6,7-trimethyl-3-oxo-5^2,5^3-dihydro-1^1H,5^1H-11-oxa-4-aza-5(2,1)-benzo[d]imidazola-2(2,4)-pyridina-1(4,5)-pyrazolacycloundecaphane-5-yl)azetidin-3-yl)amino)piperidin-1-yl)phenyl)piperidine-2,6-dione], in the assay on Del19/T790M/C797S EGFR, half-maximal degradation (DC50) was put at 0.765 nM and the “Dmax (%)” value worked out at 68.28%. Further, at L858R/T790M/C797S EGFR, the DC50 was determined as 1.08 nM and the Dmax worked out at 86%.

With `Cc1cc2cc(n1)-c1cnn(C)c1OCCC[C@@H](C)CN1/C(=N/C2=O)Nc2ccc(CN3CCN(C(=O)[C@@H]4CCN(c5cc(F)c([C@H]6CCC(=O)NC6=O)c(F)c5)C4)CC3)c(F)c21` [Example 59, (R)-3-(2,6-difluoro-4-((R)-3-(4-(((R,E)-5^7-fluoro-1^1,2^6,7-trimethyl-3-oxo-5^2,5^3-dihydro-1^1H,5^1H-11-oxa-4-aza-5(2,1)-benzo[d]imidazola-2(2,4)-pyridina-1(4,5)-pyrazolacycloundecaphane-5^6-yl)methyl)piperazine-1-carbonyl)pyrrolidin-1-yl)phenyl)piperidine-2,6-dione], in the assay on Del19/T790M/C797S EGFR, the DC50 worked out at 1.48 nM and the “Dmax (%)” value was 78.58%. At L858R/T790M/C797S EGFR, this molecule yielded a DC50 of 2.92 nM and a Dmax of 82%.

For the molecule `Cc1cc2cc(n1)-c1cnn(C)c1OCCC[C@@H](C)CN1/C(=N/C2=O)Nc2ccc(CN3CCN(C(=O)C4CCN(c5cc(F)c([C@H]6CCC(=O)NC6=O)c(F)c5)CC4)CC3)cc21` [Example 162, (R)-3-(2,6-difluoro-4-(4-(4-(((R,E)-1^1,2^6,7-trimethyl-3-oxo-5^2, 5^3-dihydro-1^1H,5^1H-11-oxa-4-aza-5(2,1)-benzo[d]imidazola-2(2,4)-pyridina-1(4,5)-pyrazolacycloundecaphane-5^6-yl)methyl)piperazine-1-carbonyl)piperidin-1-yl)phenyl)piperidine-2,6-dione], in the assay on Del19/T790M/C797S EGFR, the DC50 is 0.557 nM and the “Dmax (%)” value was determined as 71.45%. At L858R/T790M/C797S EGFR, this molecule yielded a DC50 of 0.598 nM and a Dmax of 79.1%.

As to `Cc1cc2cc(n1)-c1cnn(C)c1OCCC[C@@H](C)CN1/C(=N/C2=O)Nc2ccc(CN3CCN(C(=O)[C@@H]4CCN(c5cc(F)c([C@H]6CCC(=O)NC6=O)c(F)c5)C4)CC3=O)cc21` [Example 200, (R)-3-(2,6-difluoro-4-((R)-3-(3-oxo-4-(((R,E)-1^1,2^6,7-trimethyl-3-oxo-5^2,5^3-dihydro-1^1H,5^1H-11-oxa-4-aza-5(2,1)-benzo[d]imidazola-2(2,4)-pyridina-1(4,5)-pyrazolacycloundecaphane-5^6-yl)methyl)piperazine-1-carbonyl)pyrrolidin-1-yl)phenyl)piperidine-2,6-dione], in the assay with Del19/T790M/C797S EGFR, the DC50 was 1.38 nM and the “Dmax (%)” value worked out at 73.04%. On L858R/T790M/C797S EGFR, this molecule returned a DC50 of 1.22 nM and a Dmax of 86%.

Take `Cc1cc2cc(n1)-c1cnn(C)c1OCCC[C@@H](C)CN1/C(=N/C2=O)Nc2ccc(C(=O)N(C)C3CCN(CCc4cccc5c4C(C)(C)C(=O)N5[C@H]4CCC(=O)NC4=O)CC3)cc21` [Example 379, (R,E)-N-(1-(2-(1-((S)-2,6-dioxopiperidin-3-yl)-3,3-dimethyl-2-oxoindolin-4-yl)ethyl)piperidin-4-yl)-N,1^1,2^6,7-tetramethyl-3-oxo-5^2,5^3-dihydro-1^1H,5^1H-11-oxa-4-aza-5(2,1)-benzo[d]imidazola-2(2,4)-pyridina-1(4,5)-pyrazolacycloundecaphane-5^6-carboxamide]: in the assay with Del19/T790M/C797S EGFR, the DC50 was determined as 0.682 nM and the “Dmax (%)” value is 67.89%. In addition, at L858R/T790M/C797S EGFR, the DC50 is 0.503 nM and the Dmax turned out to be 80.9%.

Take `Cc1cc2cc(n1)-c1cnn(C)c1OCCC[C@@H](C)CN1/C(=N/C2=O)Nc2ccc(C(=O)N3CCN(CCCc4cc(F)c([C@H]5CCC(=O)NC5=O)c(F)c4)CC3)cc21` [Example 341, (R)-3-(2,6-difluoro-4-(3-(4-((R,E)-1^1,2^6,7-trimethyl-3-oxo-5^2,5^3-dihydro-1^1H,5^1H-11-oxa-4-aza-5(2,1)-benzo[d]imidazola-2(2,4)-pyridina-1(4,5)-pyrazolacycloundecaphane-5^6-carbonyl)piperazin-1-yl)propyl)phenyl)piperidine-2,6-dione]: in the assay on Del19/T790M/C797S EGFR, the DC50 came out at 0.621 nM and the “Dmax (%)” value came to 79.84%. For the same molecule, on L858R/T790M/C797S EGFR, the DC50 came out at 0.54 nM and the Dmax came out at 86.8%.

As for `Cc1cc2cc(n1)-c1cnn(C)c1OCCC[C@@H](C)CN1/C(=N/C2=O)Nc2ccc(N3CCN(CCNc4cc(F)c([C@H]5CCC(=O)NC5=O)c(F)c4)[C@H](CC#N)C3)cc21` [Example 442, 2-((R)-1-(2-((4-((R)-2,6-dioxopiperidin-3-yl)-3,5-difluorophenyl)amino)ethyl)-4-((R,E)-1^1,2^6,7-trimethyl-3-oxo-5^2,5^3-dihydro-1^1H,5^1H-11-oxa-4-aza-5(2,1)-benzo[d]imidazola-2(2,4)-pyridina-1(4,5)-pyrazolacycloundecaphane-5^6-yl)piperazin-2-yl)acetonitrile], in the assay with Del19/T790M/C797S EGFR, the DC50 stood at 0.721 nM and the “Dmax (%)” value is on record as 70.20%. For the same molecule, on L858R/T790M/C797S EGFR, it took 0.742 nM to reach half-maximal degradation (DC50) and the Dmax turned out to be 84.4%.

As for `Cc1cc2cc(n1)-c1cnn(C)c1OCCC[C@@H](C)CN1/C(=N/C2=O)Nc2ccc(N3CCN(CC4CN(c5cc(F)c([C@H]6CCC(=O)NC6=O)c(F)c5)C4)[C@@H](CO)C3)cc21` [Example 422, (R)-3-(2,6-difluoro-4-(3-(((R)-2-(hydroxymethyl)-4-((R,E)-1^1,2^6,7-trimethyl-3-oxo-5^2,5^3-dihydro-1^1H,5^1H-li-oxa-4-aza-5(2,1)-benzo[d]imidazola-2(2,4)-pyridina-1(4,5)-pyrazolacycloundecaphane-5^6-yl)piperazin-1-yl)methyl)azetidin-1-yl)phenyl)piperidine-2,6-dione], in the assay on Del19/T790M/C797S EGFR, the DC50 was determined as 0.652 nM and the “Dmax (%)” value is 83.55%. On L858R/T790M/C797S EGFR, this molecule displayed a DC50 of 0.856 nM and a Dmax of 92.2%.

Consider `Cc1cc2cc(n1)-c1cnn(C)c1OCCC[C@@H](C)CN1/C(=N/C2=O)Nc2ccc(C(=O)N(C)[C@@H]3C[C@H]4CC[C@@H](C3)N4CCc3cc(F)c([C@H]4CCC(=O)NC4=O)c(F)c3)cc21` [Example 265, (R,E)-N—((1R,3S,5S)-8-(4-((R)-2,6-dioxopiperidin-3-yl)-3,5-difluorophenethyl)-8-azabicyclo[3.2.1]octan-3-yl)-N,1^1,2^6,7-tetramethyl-3-oxo-5^2,5^3-dihydro-1^1H,5^1H-11-oxa-4-aza-5(2,1)-benzo[d]imidazola-2(2,4)-pyridina-1(4,5)-pyrazolacycloundecaphane-5^6-carboxamide], for which, in the assay with Del19/T790M/C797S EGFR, the DC50 turned out to be 0.625 nM and the “Dmax (%)” value was 79.26%. Besides, on L858R/T790M/C797S EGFR, half-maximal degradation (DC50) was put at 0.246 nM and the Dmax was 90.9%.

As to `Cc1cc2cc(n1)-c1cnn(C)c1OCCC[C@@H](C)CN1/C(=N/C2=O)Nc2ccc(C(=O)N(C)[C@@H]3CCN(CCc4cc(F)c([C@H]5CCC(=O)NC5=O)c(F)c4)[C@H](C)C3)cc21` [Example 268, (R,E)-N—((2R,4R)-1-(4-((R)-2,6-dioxopiperidin-3-yl)-3,5-difluorophenethyl)-2-methylpiperidin-4-yl) -N,1^1,2^6,7-tetramethyl-3-oxo-5^2,5^3-dihydro-1^1H,5^1H-li-oxa-4-aza-5(2,1)-benzo[d]imidazola-2(2,4)-pyridina-1(4,5)-pyrazolacycloundecaphane-5^6-carboxamide], in the assay on Del19/T790M/C797S EGFR, the DC50 came out at 0.439 nM and the “Dmax (%)” value is 81.98%. Also, on L858R/T790M/C797S EGFR, it took 0.53 nM to reach half-maximal degradation (DC50) and the Dmax worked out at 89.8%.

In the case of `Cc1cc2cc(n1)-c1cnn(C)c1OCCC[C@@H](C)CN1/C(=N/C2=O)Nc2ccc(C(=O)N(C)[C@H]3CCN(CCNc4cc(F)c([C@H]5CCC(=O)NC5=O)c(F)c4)C[C@@H]3F)cc21` [Example 352, (R,E)-N—((3S,4S)-1-(2-((4-((R)-2,6-dioxopiperidin-3-yl)-3,5-difluorophenyl)amino)ethyl)-3-fluoropiperidin-4-yl)-N,1^1,2^6,7-tetramethyl-3-oxo-5^2,5^3-dihydro-1^1H,5^1H-11-oxa-4-aza-5(2,1)-benzo[d]imidazola-2(2,4)-pyridina-1(4,5)-pyrazolacycloundecaphane-5^6-carboxamide], in the assay with Del19/T790M/C797S EGFR, the DC50 turned out to be 0.814 nM and the “Dmax (%)” value was determined as 79.43%. At L858R/T790M/C797S EGFR, this molecule had a DC50 of 0.847 nM and a Dmax of 85.6%.

In the case of `Cc1cc2cc(n1)-c1cnn(C)c1OCCC[C@@H](C)CN1/C(=N/C2=O)Nc2ccc(N3CCN([C@H]4C[C@H](Nc5cc(F)c([C@H]6CCC(=O)NC6=O)c(F)c5)C4)CC3)cc21` (single isomer, unassigned) [Example 444], in the assay with Del19/T790M/C797S EGFR, the DC50 is 1.3 nM and the “Dmax (%)” value was found to be 82.11%. Further, at L858R/T790M/C797S EGFR, it took 2.1 nM to reach half-maximal degradation (DC50) and the Dmax was 89%.

Usually DC50 stands for the concentration giving 50% degradation. Low values mean degradation at low concentration, high ones degradation only at high concentration. The term Dmax denotes the largest share of the target that was removed. The low end stands for a partial loss of target, the high end for a fuller loss of target.
